# Assay results as given in PubChem BioAssay (NCI).
#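 These data come from cells grown in 96-well plates and exposed to compound for 48 hours at five concentrations. GI50 is the concentration that inhibits growth by half. TGI: total growth inhibition.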
# Key:
# Assay in all cases: growth of human tumour cells (NCI), 48 h
# 786-0 renal = system: 786-0 renal
# A498 renal = system: A498 renal
# A549 NSCLC = system: A549 NSCLC
# ACHN renal = system: ACHN renal
# BT-549 breast = system: BT-549 breast
# CAKI-1 renal = system: CAKI-1 renal
# CCRF-CEM leukemia = system: CCRF-CEM leukemia
# COLO 205 colon = system: COLO 205 colon
# DU-145 prostate = system: DU-145 prostate
# HCC-2998 colon = system: HCC-2998 colon
# HCT-116 colon = system: HCT-116 colon
# HCT-15 colon = system: HCT-15 colon
# HL-60(TB) leukemia = system: HL-60(TB) leukemia
# HOP-62 NSCLC = system: HOP-62 NSCLC
# HOP-92 NSCLC = system: HOP-92 NSCLC
# HS 578T breast = system: HS 578T breast
# IGROV1 ovarian = system: IGROV1 ovarian
# K-562 leukemia = system: K-562 leukemia
# KM12 colon = system: KM12 colon
# LOX IMVI melanoma = system: LOX IMVI melanoma
# M14 melanoma = system: M14 melanoma
# MALME-3M melanoma = system: MALME-3M melanoma
# MCF7 breast = system: MCF7 breast
# MDA-MB-231 breast = system: MDA-MB-231 breast
# MDA-MB-435 = system: MDA-MB-435
# MOLT-4 leukemia = system: MOLT-4 leukemia
# NCI-H226 lung = system: NCI-H226 lung
# NCI-H23 lung = system: NCI-H23 lung
# NCI-H460 lung = system: NCI-H460 lung
# NCI-H522 lung = system: NCI-H522 lung
# NCI/ADR-RES ovarian = system: NCI/ADR-RES ovarian
# OVCAR-3 ovarian = system: OVCAR-3 ovarian
# OVCAR-5 ovarian = system: OVCAR-5 ovarian
# OVCAR-8 ovarian = system: OVCAR-8 ovarian
# PC-3 prostate = system: PC-3 prostate
# RPMI-8226 leukemia = system: RPMI-8226 leukemia
# RXF 393 renal = system: RXF 393 renal
# SF-268 CNS = system: SF-268 CNS
# SF-295 CNS = system: SF-295 CNS
# SF-539 CNS = system: SF-539 CNS
# SK-MEL-2 melanoma = system: SK-MEL-2 melanoma
# SK-MEL-28 melanoma = system: SK-MEL-28 melanoma
# SK-MEL-5 melanoma = system: SK-MEL-5 melanoma
# SK-OV-3 ovarian = system: SK-OV-3 ovarian
# SN12C renal = system: SN12C renal
# SNB-19 CNS = system: SNB-19 CNS
# SNB-75 CNS = system: SNB-75 CNS
# SR leukemia = system: SR leukemia
# SW-620 colon = system: SW-620 colon
# T-47D breast = system: T-47D breast
# TK-10 renal = system: TK-10 renal
# UACC-257 melanoma = system: UACC-257 melanoma
# UACC-62 melanoma = system: UACC-62 melanoma
# UO-31 renal = system: UO-31 renal
compound,measurement,setting,value
CCOC(=O)/C(=C/CC/C(C)=C/CC/C(C)=C/CCc1ccoc1)CC(=O)N1CCCCC1,GI50,786-0 renal,5.29 µM
same,TGI,786-0 renal,18.8 µM
same,GI50,A498 renal,1.27 µM
same,TGI,A498 renal,3.08 µM
same,GI50,A549 NSCLC,1.92 µM
same,TGI,A549 NSCLC,4.14 µM
same,GI50,ACHN renal,2.93 µM
same,TGI,ACHN renal,10.3 µM
same,GI50,BT-549 breast,4.03 µM
same,TGI,BT-549 breast,17.2 µM
same,GI50,CAKI-1 renal,3.16 µM
same,TGI,CAKI-1 renal,38.3 µM
same,GI50,CCRF-CEM leukemia,3.56 µM
same,TGI,CCRF-CEM leukemia,22.5 µM
same,GI50,COLO 205 colon,2.32 µM
same,TGI,COLO 205 colon,6.05 µM
same,GI50,DU-145 prostate,7.76 µM
same,TGI,DU-145 prostate,43.4 µM
same,GI50,HCC-2998 colon,3.93 µM
same,TGI,HCC-2998 colon,14.3 µM
same,GI50,HCT-116 colon,2.66 µM
same,TGI,HCT-116 colon,10.2 µM
same,GI50,HCT-15 colon,3.01 µM
same,TGI,HCT-15 colon,12.5 µM
same,GI50,HL-60(TB) leukemia,2.99 µM
same,TGI,HL-60(TB) leukemia,7.4 µM
same,GI50,HOP-62 NSCLC,4.4 µM
same,TGI,HOP-62 NSCLC,19.8 µM
same,GI50,HOP-92 NSCLC,1.7 µM
same,TGI,HOP-92 NSCLC,4.26 µM
same,GI50,HS 578T breast,5.07 µM
same,TGI,HS 578T breast,35.2 µM
same,GI50,IGROV1 ovarian,14 µM
same,TGI,IGROV1 ovarian,47.2 µM
same,GI50,K-562 leukemia,3.91 µM
same,TGI,K-562 leukemia,96 µM
same,GI50,KM12 colon,4.59 µM
same,TGI,KM12 colon,19.2 µM
same,GI50,LOX IMVI melanoma,4.43 µM
same,TGI,LOX IMVI melanoma,15.8 µM
same,GI50,M14 melanoma,2.95 µM
same,TGI,M14 melanoma,10.2 µM
same,GI50,MALME-3M melanoma,2.62 µM
same,TGI,MALME-3M melanoma,7.09 µM
same,GI50,MCF7 breast,2.11 µM
same,TGI,MCF7 breast,5.92 µM
same,GI50,MDA-MB-231 breast,1.96 µM
same,TGI,MDA-MB-231 breast,4.17 µM
same,GI50,MDA-MB-435,3.05 µM
same,TGI,MDA-MB-435,10.9 µM
same,GI50,MOLT-4 leukemia,4.03 µM
same,TGI,MOLT-4 leukemia,9.67 µM
same,GI50,NCI-H226 lung,4.48 µM
same,TGI,NCI-H226 lung,19.4 µM
same,GI50,NCI-H23 lung,3.12 µM
same,TGI,NCI-H23 lung,15.1 µM
same,GI50,NCI-H460 lung,1.82 µM
same,TGI,NCI-H460 lung,3.7 µM
same,GI50,NCI-H522 lung,2.75 µM
same,TGI,NCI-H522 lung,9.2 µM
same,GI50,NCI/ADR-RES ovarian,3.88 µM
same,TGI,NCI/ADR-RES ovarian,23.7 µM
same,GI50,OVCAR-3 ovarian,3.44 µM
same,TGI,OVCAR-3 ovarian,12.3 µM
same,GI50,OVCAR-5 ovarian,3.1 µM
same,TGI,OVCAR-5 ovarian,14.9 µM
same,GI50,OVCAR-8 ovarian,3.97 µM
same,TGI,OVCAR-8 ovarian,40.2 µM
same,GI50,PC-3 prostate,3.1 µM
same,TGI,PC-3 prostate,17.9 µM
same,GI50,RPMI-8226 leukemia,1.87 µM
same,TGI,RPMI-8226 leukemia,5.47 µM
same,GI50,RXF 393 renal,2.45 µM
same,TGI,RXF 393 renal,9.62 µM
same,GI50,SF-268 CNS,8.91 µM
same,TGI,SF-268 CNS,38.3 µM
same,GI50,SF-295 CNS,1.55 µM
same,TGI,SF-295 CNS,5.08 µM
same,GI50,SF-539 CNS,7.9 µM
same,TGI,SF-539 CNS,20.9 µM
same,GI50,SK-MEL-2 melanoma,2.04 µM
same,TGI,SK-MEL-2 melanoma,4 µM
same,GI50,SK-MEL-28 melanoma,3.2 µM
same,TGI,SK-MEL-28 melanoma,12.4 µM
same,GI50,SK-MEL-5 melanoma,1.66 µM
same,TGI,SK-MEL-5 melanoma,3.09 µM
same,GI50,SK-OV-3 ovarian,8.27 µM
same,TGI,SK-OV-3 ovarian,36.1 µM
same,GI50,SN12C renal,3.79 µM
same,TGI,SN12C renal,14.8 µM
same,GI50,SNB-19 CNS,4.05 µM
same,TGI,SNB-19 CNS,41.3 µM
same,GI50,SNB-75 CNS,4.1 µM
same,TGI,SNB-75 CNS,35.3 µM
same,GI50,SR leukemia,3.11 µM
same,TGI,SR leukemia,16 µM
same,GI50,SW-620 colon,4.8 µM
same,TGI,SW-620 colon,19.2 µM
same,GI50,T-47D breast,2.37 µM
same,TGI,T-47D breast,8.65 µM
same,GI50,TK-10 renal,5.66 µM
same,TGI,TK-10 renal,75.5 µM
same,GI50,UACC-257 melanoma,2.29 µM
same,TGI,UACC-257 melanoma,7.41 µM
same,GI50,UACC-62 melanoma,2.8 µM
same,TGI,UACC-62 melanoma,12.7 µM
same,GI50,UO-31 renal,2.8 µM
same,TGI,UO-31 renal,12.8 µM
Nc1nc(N)c2c(n1)NC(c1sc(Cl)nc1Cl)CC(c1ccccc1)=N2 (stereo unspecified),GI50,786-0 renal,5.05 µM
same,TGI,786-0 renal,19.2 µM
same,GI50,A498 renal,1.28 µM
same,TGI,A498 renal,8.92 µM
same,GI50,A549 NSCLC,5.02 µM
same,TGI,A549 NSCLC,19.4 µM
same,GI50,ACHN renal,4.56 µM
same,TGI,ACHN renal,16.8 µM
same,GI50,BT-549 breast,3.93 µM
same,TGI,BT-549 breast,16.1 µM
same,GI50,CAKI-1 renal,3.28 µM
same,TGI,CAKI-1 renal,19.6 µM
same,GI50,CCRF-CEM leukemia,3.21 µM
same,TGI,CCRF-CEM leukemia,16.9 µM
same,GI50,COLO 205 colon,4.18 µM
same,TGI,COLO 205 colon,15.4 µM
same,GI50,DU-145 prostate,11.2 µM
same,TGI,DU-145 prostate,24.2 µM
same,GI50,HCC-2998 colon,10.3 µM
same,TGI,HCC-2998 colon,21.9 µM
same,GI50,HCT-116 colon,3.7 µM
same,TGI,HCT-116 colon,13.9 µM
same,GI50,HCT-15 colon,3.05 µM
same,TGI,HCT-15 colon,15.2 µM
same,GI50,HL-60(TB) leukemia,2.04 µM
same,TGI,HL-60(TB) leukemia,8.22 µM
same,GI50,HOP-62 NSCLC,3.72 µM
same,TGI,HOP-62 NSCLC,18 µM
same,GI50,HOP-92 NSCLC,3.72 µM
same,TGI,HOP-92 NSCLC,18 µM
same,GI50,HS 578T breast,2.44 µM
same,TGI,HS 578T breast,11.1 µM
same,GI50,IGROV1 ovarian,7.08 µM
same,TGI,IGROV1 ovarian,23.4 µM
same,GI50,K-562 leukemia,1.68 µM
same,TGI,K-562 leukemia,20.9 µM
same,GI50,KM12 colon,3.79 µM
same,TGI,KM12 colon,15.3 µM
same,GI50,LOX IMVI melanoma,5.39 µM
same,TGI,LOX IMVI melanoma,18.1 µM
same,GI50,M14 melanoma,2.64 µM
same,TGI,M14 melanoma,10.4 µM
same,GI50,MALME-3M melanoma,6.33 µM
same,TGI,MALME-3M melanoma,19.1 µM
same,GI50,MCF7 breast,3.56 µM
same,TGI,MCF7 breast,20.4 µM
same,GI50,MDA-MB-231 breast,3.86 µM
same,TGI,MDA-MB-231 breast,16.5 µM
same,GI50,MDA-MB-435,1.47 µM
same,TGI,MDA-MB-435,10.2 µM
same,GI50,MOLT-4 leukemia,4.06 µM
same,TGI,MOLT-4 leukemia,20.8 µM
same,GI50,NCI-H226 lung,13.7 µM
same,TGI,NCI-H226 lung,35.1 µM
same,GI50,NCI-H23 lung,8.23 µM
same,TGI,NCI-H23 lung,23.3 µM
same,GI50,NCI-H460 lung,4.05 µM
same,TGI,NCI-H460 lung,14.6 µM
same,GI50,NCI-H522 lung,3.27 µM
same,TGI,NCI-H522 lung,14.3 µM
same,GI50,NCI/ADR-RES ovarian,3.13 µM
same,TGI,NCI/ADR-RES ovarian,12.4 µM
same,GI50,OVCAR-3 ovarian,3.6 µM
same,TGI,OVCAR-3 ovarian,13.7 µM
same,GI50,OVCAR-5 ovarian,10.2 µM
same,TGI,OVCAR-5 ovarian,21.9 µM
same,GI50,OVCAR-8 ovarian,4.8 µM
same,TGI,OVCAR-8 ovarian,22.2 µM
same,GI50,PC-3 prostate,5.89 µM
same,TGI,PC-3 prostate,24 µM
same,GI50,RPMI-8226 leukemia,4.99 µM
same,TGI,RPMI-8226 leukemia,31.5 µM
same,GI50,RXF 393 renal,2.48 µM
same,TGI,RXF 393 renal,9.5 µM
same,GI50,SF-268 CNS,5.68 µM
same,TGI,SF-268 CNS,22.5 µM
same,GI50,SF-295 CNS,3.06 µM
same,TGI,SF-295 CNS,13.3 µM
same,GI50,SF-539 CNS,2.69 µM
same,TGI,SF-539 CNS,9.97 µM
same,GI50,SK-MEL-2 melanoma,2.98 µM
same,TGI,SK-MEL-2 melanoma,10.9 µM
same,GI50,SK-MEL-28 melanoma,4.26 µM
same,TGI,SK-MEL-28 melanoma,17.8 µM
same,GI50,SK-MEL-5 melanoma,3.69 µM
same,TGI,SK-MEL-5 melanoma,13.9 µM
same,GI50,SK-OV-3 ovarian,3.6 µM
same,TGI,SK-OV-3 ovarian,15.3 µM
same,GI50,SN12C renal,5.83 µM
same,TGI,SN12C renal,18.5 µM
same,GI50,SNB-19 CNS,5.15 µM
same,TGI,SNB-19 CNS,17.8 µM
same,GI50,SNB-75 CNS,1.63 µM
same,TGI,SNB-75 CNS,7.59 µM
same,GI50,SR leukemia,2.25 µM
same,TGI,SR leukemia,8.86 µM
same,GI50,SW-620 colon,3.42 µM
same,TGI,SW-620 colon,13.3 µM
same,GI50,T-47D breast,3.35 µM
same,TGI,T-47D breast,22.1 µM
same,GI50,TK-10 renal,11.5 µM
same,TGI,TK-10 renal,24.1 µM
same,GI50,UACC-257 melanoma,6.77 µM
same,TGI,UACC-257 melanoma,20.9 µM
same,GI50,UACC-62 melanoma,3.05 µM
same,TGI,UACC-62 melanoma,13.9 µM
same,GI50,UO-31 renal,3.04 µM
same,TGI,UO-31 renal,15.6 µM
